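In this assay, cells in 96-well plates receive the compound at five concentrations for 48 hours. Endpoints are linearly interpolated between the surrounding concentrations. TGI: concentration producing complete growth inhibition.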

Some test systems named below: 786-0 renal; A549 NSCLC; HT29 colon; IGROV1 ovarian; LOX IMVI melanoma; OVCAR-3 ovarian; PC-3 prostate; SK-MEL-2 melanoma; SN12C renal; U251 CNS.
Holding throughout (test): growth of human tumour cells (NCI), 48 h

`Cc1[nH]c(-c2ccccc2)c(-c2ccc(Cl)cc2)c1C(=O)ONC(=O)c1ccccc1`: the TGI in the experiment on 786-0 renal is 4.46 µM; in the experiment on A549 NSCLC it was 10.4 µM; with HT29 colon it was 22.9 µM; in the experiment with IGROV1 ovarian, 2.52 µM; in the experiment on LOX IMVI melanoma it was 2.87 µM; in the experiment with OVCAR-3 ovarian, 14.9 µM. Also, the TGI with PC-3 prostate amounted to 17.2 µM; in the experiment on SK-MEL-2 melanoma, 11.2 µM; in the experiment on SN12C renal, 5.21 µM; with U251 CNS it was 3.6 µM.

On to `O=C1[C@@H]2Cc3c([nH]c4ccccc34)C(C3CCCCC3)N2C(=O)[C@@H]2CCCN12` (stereo not given in full), for which the TGI was 75.9 µM with 786-0 renal; more than 100 µM in the experiment with A549 NSCLC; 73.4 µM in the experiment on HT29 colon; more than 100 µM in the experiment on IGROV1 ovarian; 73.9 µM in the experiment with LOX IMVI melanoma; 51.7 µM with OVCAR-3 ovarian. For the same molecule, the TGI in the experiment on PC-3 prostate is 60.6 µM; in the experiment with SK-MEL-2 melanoma it was 39.7 µM; in the experiment with SN12C renal, 63.4 µM; in the experiment on U251 CNS, more than 100 µM.

Turning to `CSCCC(NC(=O)OC(C)(C)C)C(=O)NCCNc1ccc(NCCNC(=O)C(CCSC)NC(=O)OC(C)(C)C)c2c1C(=O)c1ccccc1C2=O` (stereo not given), the TGI in the experiment with 786-0 renal came to 12.8 µM; in the experiment on A549 NSCLC, 7.93 µM; with HT29 colon, 7.51 µM; in the experiment with IGROV1 ovarian it was 9.85 µM; in the experiment on LOX IMVI melanoma, 22.8 µM; with OVCAR-3 ovarian it was 15.6 µM. Besides, the TGI with PC-3 prostate is 17.7 µM; with SK-MEL-2 melanoma it was 35.9 µM; with SN12C renal, 21 µM; in the experiment with U251 CNS, 10.6 µM.

Regarding `CN1CC(c2ccccc2)N(CCCCN2CC(c3ccccc3)N(C)CC2c2ccccc2)CC1c1ccccc1` (stereo not given), the TGI with 786-0 renal is more than 100 µM; in the experiment with A549 NSCLC it was more than 100 µM; in the experiment on HT29 colon, more than 100 µM; in the experiment on IGROV1 ovarian it was more than 100 µM; with LOX IMVI melanoma, 39.1 µM; with OVCAR-3 ovarian, more than 100 µM. Besides, the TGI in the experiment with PC-3 prostate was more than 100 µM; in the experiment with SK-MEL-2 melanoma, 81.2 µM; in the experiment on SN12C renal, more than 100 µM.

As for `CCOC(=O)c1cn(-c2ccc(Cl)cc2)c(=O)n2c1nc1ccccc12`, the TGI with 786-0 renal, with A549 NSCLC, in the experiment on HT29 colon, in the experiment on IGROV1 ovarian, in the experiment with LOX IMVI melanoma and in the experiment on OVCAR-3 ovarian was more than 100 µM throughout. The TGI with PC-3 prostate, with SK-MEL-2 melanoma, in the experiment on SN12C renal and with U251 CNS was more than 100 µM in each case.

With `CC(C)n1c(=O)n(-c2ccccc2)n(C(C)(C)C)c1=O`, the TGI with 786-0 renal, in the experiment with A549 NSCLC, in the experiment with HT29 colon, in the experiment with IGROV1 ovarian, with LOX IMVI melanoma and in the experiment on OVCAR-3 ovarian was more than 100 µM in each case. In addition, the TGI with PC-3 prostate, in the experiment with SK-MEL-2 melanoma, in the experiment with SN12C renal and in the experiment on U251 CNS was more than 100 µM each time.

As to `COc1ccc2c(c1)CCc1c-2n(CCN(C)C)c2ccc(OC)cc12`, the TGI with 786-0 renal is more than 100 µM; with A549 NSCLC, more than 100 µM; in the experiment with HT29 colon it was more than 100 µM; in the experiment on IGROV1 ovarian it was 79.5 µM; with LOX IMVI melanoma, more than 100 µM; in the experiment with OVCAR-3 ovarian, more than 100 µM. In addition, the TGI is 46 µM with PC-3 prostate, 40 µM with SK-MEL-2 melanoma, more than 100 µM in the experiment with SN12C renal and 78.7 µM in the experiment with U251 CNS.

Regarding `Cc1ccc(O)c(C2=NNC(c3cccc(Br)c3)C2)c1` (stereo not given), the TGI in the experiment with 786-0 renal, in the experiment with A549 NSCLC, in the experiment on HT29 colon, in the experiment on IGROV1 ovarian, in the experiment on LOX IMVI melanoma and with OVCAR-3 ovarian was more than 100 µM each time. Also, the TGI in the experiment with PC-3 prostate, with SK-MEL-2 melanoma, with SN12C renal and in the experiment with U251 CNS was more than 100 µM each time.

With `O=C(NCCO)c1ccc(Cl)cc1`, the TGI in the experiment with 786-0 renal, with A549 NSCLC, in the experiment on HT29 colon, in the experiment on IGROV1 ovarian, with LOX IMVI melanoma and with OVCAR-3 ovarian was more than 100 µM in each case. Further, the TGI in the experiment on PC-3 prostate, in the experiment on SK-MEL-2 melanoma, with SN12C renal and in the experiment on U251 CNS was more than 100 µM throughout.

On to `O=C1C=CC(=O)c2ncccc21`, for which the TGI worked out at 7.61 µM in the experiment with 786-0 renal; 28.8 µM in the experiment on A549 NSCLC; 16.7 µM with HT29 colon; 17.6 µM in the experiment on IGROV1 ovarian; 6.32 µM in the experiment with LOX IMVI melanoma; 4.13 µM with OVCAR-3 ovarian. Besides, the TGI with PC-3 prostate worked out at 22.3 µM; in the experiment with SK-MEL-2 melanoma, 28.2 µM; in the experiment on SN12C renal, 16 µM; in the experiment on U251 CNS, 17 µM.

For `Cc1ccc(S(=O)(=O)N2CCN(CCN(C)CCN3CCN(S(=O)(=O)c4ccc(C)cc4)CC3)CC2)cc1`, the TGI amounted to 39.3 µM in the experiment on 786-0 renal; 76.1 µM in the experiment on A549 NSCLC; 29.9 µM in the experiment on HT29 colon; 33.6 µM with IGROV1 ovarian; 33 µM in the experiment with LOX IMVI melanoma; 31.1 µM with OVCAR-3 ovarian. Also, the TGI turned out to be 56 µM with PC-3 prostate, 33.6 µM in the experiment with SK-MEL-2 melanoma, 37.6 µM with SN12C renal and 31.6 µM in the experiment with U251 CNS.

With `CC(C)(C)N1Cc2ccccc2/C(=C/Sc2ccccc2)C1=O`, the TGI in the experiment with 786-0 renal was 24.8 µM; with A549 NSCLC it was 37.6 µM; in the experiment on HT29 colon it was 35.6 µM; with IGROV1 ovarian it was 24 µM; in the experiment with LOX IMVI melanoma, 11.3 µM; in the experiment with OVCAR-3 ovarian it was 25.1 µM. The TGI with PC-3 prostate was found to be 26.6 µM; with SK-MEL-2 melanoma, 31.4 µM; with SN12C renal it was 23.8 µM; in the experiment with U251 CNS, 27.3 µM.

Consider `O=C(O)c1ccccc1/C=N\NC1=NCCCCN1`, for which the TGI in the experiment with 786-0 renal, in the experiment with A549 NSCLC, in the experiment with HT29 colon, in the experiment on IGROV1 ovarian, in the experiment with LOX IMVI melanoma and with OVCAR-3 ovarian was more than 100 µM in each case. Further, the TGI with PC-3 prostate, with SK-MEL-2 melanoma, in the experiment on SN12C renal and in the experiment on U251 CNS was more than 100 µM each time.

With `CCOC(=O)C1=C(C)NC(=S)NC1c1cccc(O)c1` (stereo not given), the TGI in the experiment on 786-0 renal, in the experiment with A549 NSCLC, with HT29 colon, in the experiment with IGROV1 ovarian, with LOX IMVI melanoma and in the experiment on OVCAR-3 ovarian was more than 100 µM throughout. The TGI in the experiment on PC-3 prostate is more than 89.6 µM; with SK-MEL-2 melanoma, 79 µM; in the experiment on SN12C renal, more than 95.3 µM; with U251 CNS, more than 96.5 µM.

As to `CC1(C)[C@@H]2C[C@H]1c1cnc(-c3ccccn3)cc1C2[C@@H]1c2cc(-c3ccccn3)ncc2[C@@H]2C[C@H]1C2(C)C` (stereo not given in full), the TGI in the experiment with 786-0 renal, in the experiment with A549 NSCLC, in the experiment with HT29 colon, in the experiment on IGROV1 ovarian, in the experiment with LOX IMVI melanoma and in the experiment on OVCAR-3 ovarian was more than 100 µM in each case. Further, the TGI in the experiment with PC-3 prostate, in the experiment with SK-MEL-2 melanoma, with SN12C renal and in the experiment on U251 CNS was more than 100 µM each time.

Turning to `O=C(N=Nc1ccccc1Br)NNc1ccccc1Br`, the TGI in the experiment on 786-0 renal, with A549 NSCLC, in the experiment on HT29 colon, with IGROV1 ovarian, in the experiment on LOX IMVI melanoma and with OVCAR-3 ovarian was more than 100 µM each time. Besides, the TGI in the experiment with PC-3 prostate, in the experiment on SK-MEL-2 melanoma, with SN12C renal and with U251 CNS was more than 100 µM each time.

On to `COc1ccc(-c2c(C#N)c(-c3ccccc3)n(NS(=O)(=O)c3ccccc3)c(=O)c2C#N)cc1`, for which the TGI in the experiment on 786-0 renal, in the experiment with A549 NSCLC, with HT29 colon, with IGROV1 ovarian, in the experiment on LOX IMVI melanoma and with PC-3 prostate was more than 100 µM in each case. Moreover, the TGI in the experiment with SK-MEL-2 melanoma, in the experiment on SN12C renal and in the experiment on U251 CNS was more than 100 µM throughout.

For `CCOC(=O)C(Cc1ccccc1)(Cc1ccc(O)cn1)NC(=O)c1ccccc1` (stereo not given), the TGI in the experiment with 786-0 renal is 82.6 µM; in the experiment with A549 NSCLC it was more than 100 µM; in the experiment with HT29 colon, 81 µM; with IGROV1 ovarian, 96.7 µM; in the experiment with LOX IMVI melanoma it was 45.2 µM; in the experiment on OVCAR-3 ovarian, 47.8 µM. The TGI with PC-3 prostate is 75.1 µM; with SK-MEL-2 melanoma it was 43.9 µM; in the experiment on U251 CNS, 57.7 µM.

Regarding `CCOP(=O)(OCC)C(Nc1ccc(F)cc1)c1cccc([N+](=O)[O-])c1` (stereo not given), the TGI in the experiment on A549 NSCLC, in the experiment on HT29 colon, in the experiment with IGROV1 ovarian, with LOX IMVI melanoma, with OVCAR-3 ovarian and in the experiment with PC-3 prostate was more than 100 µM throughout. For the same molecule, the TGI in the experiment on SK-MEL-2 melanoma, with SN12C renal and in the experiment with U251 CNS was more than 100 µM each time.

For the molecule `COC(=O)c1cncc2c1CC1C3(C(=O)OC)C=NC(C4C(CO)=CCC43)C21C` (stereo not given), the TGI with 786-0 renal, in the experiment with A549 NSCLC, with HT29 colon, with IGROV1 ovarian, in the experiment with LOX IMVI melanoma and with PC-3 prostate was more than 100 µM throughout. Also, the TGI with SK-MEL-2 melanoma, with SN12C renal and in the experiment on U251 CNS was more than 100 µM in each case.

Values taken from PubChem BioAssay (NCI).
